Experimental data published in US20250262193A1, “Therapeutic Tyrosine Kinase Inhibitors For Multiple Sclerosis and Myasthenia Gravis” (Principia Biopharma Inc., priority 2022, published 2025).
Each block holds one molecule with its values, some of them ahead of it.

Columns and labels:
[1] = following repeated doses of teriflunomide; cited from earlier work
[2] = biological target: T1, BCRP (Homo sapiens, UniProt Q9UNQ0); details: in vitro studies; cited from earlier work
T1 sequence (Q9UNQ0 1-655): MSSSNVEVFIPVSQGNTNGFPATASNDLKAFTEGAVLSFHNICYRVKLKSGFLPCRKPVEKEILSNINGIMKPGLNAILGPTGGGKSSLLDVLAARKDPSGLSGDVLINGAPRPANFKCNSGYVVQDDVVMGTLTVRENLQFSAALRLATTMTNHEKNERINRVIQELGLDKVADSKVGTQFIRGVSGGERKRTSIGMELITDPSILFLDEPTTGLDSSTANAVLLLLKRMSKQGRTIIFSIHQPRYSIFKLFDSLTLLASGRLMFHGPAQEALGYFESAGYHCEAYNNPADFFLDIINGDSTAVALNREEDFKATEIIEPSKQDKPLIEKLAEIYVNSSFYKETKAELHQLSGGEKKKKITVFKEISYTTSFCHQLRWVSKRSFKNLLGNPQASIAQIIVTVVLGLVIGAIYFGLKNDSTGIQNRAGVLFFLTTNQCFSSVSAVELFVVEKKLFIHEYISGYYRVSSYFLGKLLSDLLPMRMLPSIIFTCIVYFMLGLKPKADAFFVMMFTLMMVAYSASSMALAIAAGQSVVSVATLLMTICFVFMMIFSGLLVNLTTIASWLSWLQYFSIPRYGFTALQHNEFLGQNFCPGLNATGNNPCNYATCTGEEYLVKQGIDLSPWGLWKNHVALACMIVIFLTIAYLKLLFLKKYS

[3] = Drug interaction study INT16385: potent CYP3A4 inhibitor itraconazole, healthy participants; format: in vivo, human; details: with potent CYP3A4 inhibitor itraconazole 200 mg once daily for 4 days
[4] = biological target: T2, CYP2C8 (Homo sapiens, UniProt P10632); assay: Nonclinical drug metabolism studies (CYP substrate); format: in vitro ADME
T2 sequence (P10632 1-490): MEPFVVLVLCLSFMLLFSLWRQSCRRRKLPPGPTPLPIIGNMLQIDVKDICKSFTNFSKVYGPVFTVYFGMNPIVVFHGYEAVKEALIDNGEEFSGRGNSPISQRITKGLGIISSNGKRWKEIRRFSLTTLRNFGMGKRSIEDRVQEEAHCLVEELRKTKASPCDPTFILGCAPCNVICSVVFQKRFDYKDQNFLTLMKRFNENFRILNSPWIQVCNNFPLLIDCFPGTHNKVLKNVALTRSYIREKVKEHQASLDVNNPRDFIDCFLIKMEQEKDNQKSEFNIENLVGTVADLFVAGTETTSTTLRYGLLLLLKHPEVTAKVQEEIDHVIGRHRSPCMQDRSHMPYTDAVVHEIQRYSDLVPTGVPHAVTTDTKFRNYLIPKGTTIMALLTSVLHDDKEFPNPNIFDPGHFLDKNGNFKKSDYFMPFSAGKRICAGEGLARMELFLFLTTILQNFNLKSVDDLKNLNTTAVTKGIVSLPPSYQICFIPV
Experimental: (§1) Tolebrutinib is a substrate of the CYP3A4 and CYP2C8 isoenzymes. […] In healthy participants, the potent CYP3A4 and moderate CYP2C8 induction by rifampicin (600 mg once daily for 8 days) decreased tolebrutinib exposure by 6-fold. Therefore, potent and also moderate (based on prediction) CYP3A inducers are not permitted due to their potential to decrease tolebrutinib exposure and efficacy.
(§2) Potent and moderate inducers of CYP3A or potent inhibitors of CYP2C8 hepatic enzymes are not permitted throughout the study (see Appendix 8A [Section 10.8]). • Tolebrutinib: Tolebrutinib is a substrate of the CYP3A4 and CYP2C8 isoenzymes. […] In healthy participants, potent CYP3A4 and moderate CYP2C8 induction by rifampicin (600 mg once daily for 8 days) decreased Tolebrutinib exposure 6-fold (INT16726 study). Therefore, potent and also moderate (based on prediction) CYP3A inducers are not permitted due to their potential to decrease Tolebrutinib exposure and efficacy. See Table 2H for the list of drugs not to be used. • Teriflunomide: Other potent CYP and transporter inducers should be avoided due to their potential to decrease teriflunomide exposure. Rifampicin and other known potent CYP and transporter inducers such as carbamazepine, phenobarbital, phenytoin, avasimibe, lumacaftor, rifapentine, rifabutin, and St John's wort, should be avoided. […]

[5] = biological target: CYP3A4 (Homo sapiens, UniProt P08684); assay: as above; format: in vitro ADME
Experimental: as §1, §2

[6] = Phase 2b dose-finding trial DRI15928 in participants with relapsing multiple sclerosis; format: in vivo, human; details: for alanine aminotransferase (ALT): 1 participant, normal range 6 to 34 U/L; for time for ALT to return to normal range: treatment continued
Source text: All safety summaries will be descriptive; no statistical significance tests will be performed on safety data. This includes treatment-emergent adverse events (TEAEs) and other safety information (eg, clinical laboratory evaluations, electrocardiograms [ECGs], and vital signs). TEAEs are defined as adverse events (AEs) that developed or worsened or became serious during the treatment period. These analyses will be based on the safety population, defined as all participants randomly assigned and exposed to study intervention, regardless of the amount of exposure, analyzed according to the treatment actually received. • Two participants had treatment-emergent transient alanine aminotransferase (ALT) increase >3×ULN, 1 during the 30 mg SAR442168 treatment period (at Week 8, 105 U/L [normal range 6 to 34 U/L]) that returned to normal range within 4 days and 1 during the 60 mg SAR442168 treatment period (at Week 4, 107 U/L [normal range 6 to 34 U/L]). The participant in the 60 mg group had slightly elevated ALT at screening (48 U/L) and at baseline (50 U/L); ALT levels returned to the normal range in 8 weeks. Both participants continued study treatment during this period. All other liver enzyme levels for both participants were within normal ranges during the treatment period; one event was assessed as related and one as unrelated to the study drug by the Investigators. Both participants completed the DRI15928 study and successfully rolled over to the LTS follow-up study. • One event of mild petechia in a participant (at Week 8 in the SAR442168 30 mg group) and 2 events of mild microscopic hematuria in 2 male participants (1 event at Week 16 in the SAR442168 30 mg group and 1 event on Day 1 in the SAR442168 60 mg group, with occult blood noted in urine) were reported during the treatment period in the SAR442168 Phase 2b trial. The hematology results were clinically insignificant for all 3 participants from the onset of the events. The participant with mild petechia had benign pigmentary lesions noted during screening, and the event was assessed as related to the study drug by the Investigator. The 2 events of mild microscopic hematuria were assessed as unrelated to the study drug.
The choice of the dose of 60 mg of the BTK inhibitor taken with food is based on the results of a Phase 2b dose-finding trial for tolebrutinib in participants with relapsing multiple sclerosis (DRI15928). See for example, Reich, D. S., et al., Safety and efficacy of tolebrutinib, an oral brain-penetrant BTK inhibitor, in relapsing multiple sclerosis: a phase 2b, randomised, double-blind, placebo-controlled trial. Lancet Neurol, 2021. 20(9): p. 729-738.
There were low numbers of AESIs and PCSAs observed.

[7] = Drug interaction study INT16726: potent CYP2C8 inhibitor gemfibrozil; CYP3A4/CYP2C8 inducer rifampicin, healthy participants; format: in vivo, human
Experimental: as §1, §2

[8] = Ongoing Phase 3 and LTS studies: safety (drug-induced liver injury); format: in vivo, human
Source text: Drug-induced liver injury has been identified in the ongoing tolebrutinib Phase 3 trials. […] Thus, there is a need to mitigate the risk of hepatic injury and provide safe treatment for patients with MS or MG.
All safety summaries will be descriptive; no statistical significance tests will be performed on safety data. This includes treatment-emergent adverse events (TEAEs) and other safety information (eg, clinical laboratory evaluations, electrocardiograms [ECGs], and vital signs). TEAEs are defined as adverse events (AEs) that developed or worsened or became serious during the treatment period. These analyses will be based on the safety population, defined as all participants randomly assigned and exposed to study intervention, regardless of the amount of exposure, analyzed according to the treatment actually received. • Two participants had treatment-emergent transient alanine aminotransferase (ALT) increase >3×ULN, 1 during the 30 mg SAR442168 treatment period (at Week 8, 105 U/L [normal range 6 to 34 U/L]) that returned to normal range within 4 days and 1 during the 60 mg SAR442168 treatment period (at Week 4, 107 U/L [normal range 6 to 34 U/L]). […] All other liver enzyme levels for both participants were within normal ranges during the treatment period; one event was assessed as related and one as unrelated to the study drug by the Investigators. […]

[9] = Study TDR16862: up to 240 mg once daily for 14 days under fed conditions, healthy participants; format: in vivo, human
Experimental: as §1, §2

[10] = Blood-brain barrier crossing

Sequence of CYP3A4 (P08684 whole entry): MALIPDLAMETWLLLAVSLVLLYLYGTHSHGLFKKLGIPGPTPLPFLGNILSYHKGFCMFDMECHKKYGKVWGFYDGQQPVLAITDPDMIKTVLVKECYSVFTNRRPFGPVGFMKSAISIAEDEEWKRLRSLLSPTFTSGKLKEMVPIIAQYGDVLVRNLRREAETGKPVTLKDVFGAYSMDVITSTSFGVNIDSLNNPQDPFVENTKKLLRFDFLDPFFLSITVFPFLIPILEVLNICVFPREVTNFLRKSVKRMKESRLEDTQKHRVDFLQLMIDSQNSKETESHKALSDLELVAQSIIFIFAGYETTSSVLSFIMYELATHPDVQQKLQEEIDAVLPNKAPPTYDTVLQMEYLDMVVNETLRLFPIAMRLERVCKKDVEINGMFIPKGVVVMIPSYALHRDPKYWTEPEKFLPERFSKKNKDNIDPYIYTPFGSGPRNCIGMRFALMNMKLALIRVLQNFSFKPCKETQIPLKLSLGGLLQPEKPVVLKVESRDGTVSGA

Compound: C/C(O)=C(\C#N)C(=O)Nc1ccc(C(F)(F)F)cc1 [teriflunomide]
ethinylestradiol and levonorgestrel exposure [1]: Increase | substrate of the efflux transporter BCRP [2]: substrate

increase of area under the curve (AUC) exposure [3]: 1.8 fold | substrate of CYP2C8 isoenzyme [4]: substrate | substrate of CYP3A4 isoenzyme [5]: substrate | events of mild microscopic hematuria ([6]; 2 male participants: Week 16 in 30 mg group, Day 1 in 60 mg group, resolved spontaneously): 2 events | AESIs and PCSAs observed ([6]; Phase 2b): low numbers | new risks identified ([6]; Phase 2b): no new risks were identified | severe infections ([6]; Phase 2b treatment period): No severe infections occurred | food effect: increase in AUC0-24 ([6]; fed status, Phase 2b PK data): approximately 2 fold | events of mild petechia ([6]; female participant, Week 8, 30 mg group, resolved spontaneously): One | cytopenia, including thrombocytopenia and neutropenia ([6]; hematologic laboratory results): No clinically significant cytopenia | decrease of exposure ([7]; potent CYP3A4 and moderate CYP2C8 induction by rifampicin 600 mg once daily for 8 days): 6 fold | increase of AUC exposure ([7]; with potent CYP2C8 inhibitor gemfibrozil 600 mg twice daily for 6 days): 8.4 fold | blood-brain barrier crossing [10]: crosses the blood-brain barrier
Compound: C=CC(=O)N1CCC[C@@H](n2c(=O)n(-c3ccc(Oc4ccccc4)cc3)c3c(N)nccc32)C1 [tolebrutinib, (R)-1-(1-acryloylpiperidin-3-yl)-4-amino-3-(4-phenoxyphenyl)-1H-imidazo[4,5-c]pyridin-2(3H)-one]
alanine aminotransferase (ALT) ([6]; 30 mg treatment period, Week 8): 105 U/L | alanine aminotransferase (ALT) ([6]; 60 mg treatment period, Week 4, 48 U/L at screening, 50 U/L at baseline): 107 U/L | cardiac arrhythmia ([6]; ECG monitoring): no clinically significant cardiac arrhythmia was observed | correlation between dose administered and number of TEAEs ([6]; Phase 2b): no correlation | most frequently reported infections (≥3 events total) ([6]; Phase 2b treatment period): upper respiratory tract infection, nasopharyngitis, gastroenteritis, and respiratory tract infection | participants with treatment-emergent transient ALT increase >3×ULN ([6]; Phase 2b, 1 at 30 mg, 1 at 60 mg): Two | correlation between treatment response and exposure ([6]; new gadolinium-enhancing T1-hyperintense lesions after 12 weeks of treatment): higher exposure was associated with low numbers of new gadolinium-enhancing T1-hyperintense lesions | time for ALT to return to normal range ([6]; participant of the 30 mg treatment period): ≤ 4 days | time for ALT to return to normal range ([6]; participant of the 60 mg group): 8 weeks | most common events (preferred terms) ([6]; tolebrutinib treatment arms, Phase 2b): headache, upper respiratory tract infection, and nasopharyngitis | tolerability ([8]; ongoing Phase 3 and LTS studies, to date): generally well tolerated | reversibility of DILI / liver enzyme elevation after treatment discontinuation ([8]; ongoing Phase 3 trials): appear reversible | safety and tolerability profile [9]: satisfactory
